Reference: patent US5262522A, “Receptor for oncostatin M and leukemia inhibitory factor” (Immunex Corporation, priority 1991, dated 1993)

Tested on: oncostatin M
Assay: Oncostatin M binding assay (phthalate oil separation, Scatchard) on transfected COS-7 cells
Conditions: cells preincubated with non-radiolabeled LIF before 125I-oncostatin M (curve B)
Description: Oncostatin M may be purified from cells in which the protein is naturally found, or from cells transformed with an expression vector encoding oncostatin M. One source of oncostatin M is phorbol ester-treated U937 cells, as described by Zarling et al., PNAS U.S.A. 83:9739 (1986). Purification of recombinant oncostatin M is described by Linsley et al., J. Biol. Chem. 264:4282-4289 (1989), which is hereby incorporated by reference in its entirety.
Oncostatin M may be radiolabeled using any suitable conventional procedure, such as the radioiodination procedure employed to radiolabel LIF in Example 1. The radio-iodination of oncostatin M has also been described by Linsley et al., supra.
The resulting radiolabeled oncostatin M may be substituted for radiolabeled LIF (using the same concentrations and other reaction parameters) in the assay procedures described in Example 1 in order to detect proteins and cells that bind oncostatin M. An assay for binding of ^125 I-oncostatin M to cells is also described in Linsley et al., supra.
COS-7 cells transfected with vector(s) encoding gp130 or LIF-R were assayed for the ability to bind oncostatin M. In separate transfections, COS-7 cells were transfected with the following combinations of vectors. […]

gp130 and LIF-R: receptor of gp130 and LIF-R co-expressed on COS-7 cells co-transfected with vectors B10G and pHLIFR-65
binding of oncostatin M after preincubation with LIF: did not bind oncostatin M in any measurable amount above that bound by the non-transfected COS-7 cells
